{"source": "PubChem BioAssay (NCI)", "assay_in_all_cases": "NCI tumour cell line growth inhibition, 48 h", "key": {"786-0 renal": {"tested_on": "786-0 renal"}, "A549 NSCLC": {"tested_on": "A549 NSCLC"}, "ACHN renal": {"tested_on": "ACHN renal"}, "BT-549 breast": {"tested_on": "BT-549 breast"}, "CAKI-1 renal": {"tested_on": "CAKI-1 renal"}, "CCRF-CEM leukemia": {"tested_on": "CCRF-CEM leukemia"}, "COLO 205 colon": {"tested_on": "COLO 205 colon"}, "DU-145 prostate": {"tested_on": "DU-145 prostate"}, "EKVX NSCLC": {"tested_on": "EKVX NSCLC"}, "HCC-2998 colon": {"tested_on": "HCC-2998 colon"}, "HCT-116 colon": {"tested_on": "HCT-116 colon"}, "HCT-15 colon": {"tested_on": "HCT-15 colon"}, "HL-60(TB) leukemia": {"tested_on": "HL-60(TB) leukemia"}, "HOP-62 NSCLC": {"tested_on": "HOP-62 NSCLC"}, "HOP-92 NSCLC": {"tested_on": "HOP-92 NSCLC"}, "HT29 colon": {"tested_on": "HT29 colon"}, "IGROV1 ovarian": {"tested_on": "IGROV1 ovarian"}, "K-562 leukemia": {"tested_on": "K-562 leukemia"}, "KM12 colon": {"tested_on": "KM12 colon"}, "M14 melanoma": {"tested_on": "M14 melanoma"}, "MALME-3M melanoma": {"tested_on": "MALME-3M melanoma"}, "MCF7 breast": {"tested_on": "MCF7 breast"}, "MDA-MB-231 breast": {"tested_on": "MDA-MB-231 breast"}, "MDA-MB-435": {"tested_on": "MDA-MB-435"}, "MOLT-4 leukemia": {"tested_on": "MOLT-4 leukemia"}, "NCI-H226 lung": {"tested_on": "NCI-H226 lung"}}, "note": "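In this assay, cells in 96-well plates receive the compound at five concentrations for 48 hours. Endpoints are linearly interpolated between the surrounding concentrations. At the GI50, growth is halved. Definition used: TGI = concentration required for complete inhibition of growth.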", "data": [{"smiles": "CCOC(=O)c1c2c(n(Cc3ccc(Cl)cc3Cl)c1C)-c1nc(Cc3ccccc3)[nH]c1C(=O)C2=O", "values": [{"measurement": "GI50", "setting": "786-0 renal", "value": 1.82, "unit": "µM"}, {"measurement": "TGI", "setting": "786-0 renal", "value": 3.47, "unit": "µM"}, {"measurement": "GI50", "setting": "A549 NSCLC", "value": 3.84, "unit": "µM"}, {"measurement": "TGI", "setting": "A549 NSCLC", "value": "> 100", "unit": "µM"}, {"measurement": "GI50", "setting": "ACHN renal", "value": 1.75, "unit": "µM"}, {"measurement": "TGI", "setting": "ACHN renal", "value": 3.17, "unit": "µM"}, {"measurement": "GI50", "setting": "BT-549 breast", "value": 2.07, "unit": "µM"}, {"measurement": "TGI", "setting": "BT-549 breast", "value": 3.87, "unit": "µM"}, {"measurement": "GI50", "setting": "CAKI-1 renal", "value": 2.31, "unit": "µM"}, {"measurement": "TGI", "setting": "CAKI-1 renal", "value": 4.01, "unit": "µM"}, {"measurement": "GI50", "setting": "CCRF-CEM leukemia", "value": 1.81, "unit": "µM"}, {"measurement": "TGI", "setting": "CCRF-CEM leukemia", "value": 4.45, "unit": "µM"}, {"measurement": "GI50", "setting": "COLO 205 colon", "value": 2.42, "unit": "µM"}, {"measurement": "TGI", "setting": "COLO 205 colon", "value": 5.85, "unit": "µM"}, {"measurement": "GI50", "setting": "DU-145 prostate", "value": 1.78, "unit": "µM"}, {"measurement": "TGI", "setting": "DU-145 prostate", "value": 3.3, "unit": "µM"}, {"measurement": "GI50", "setting": "EKVX NSCLC", "value": 2.24, "unit": "µM"}, {"measurement": "TGI", "setting": "EKVX NSCLC", "value": 4.49, "unit": "µM"}, {"measurement": "GI50", "setting": "HCC-2998 colon", "value": 1.93, "unit": "µM"}, {"measurement": "TGI", "setting": "HCC-2998 colon", "value": 3.78, "unit": "µM"}, {"measurement": "GI50", "setting": "HCT-116 colon", "value": 1.68, "unit": "µM"}, {"measurement": "TGI", "setting": "HCT-116 colon", "value": 3.07, "unit": "µM"}, {"measurement": "GI50", "setting": "HCT-15 colon", "value": 2.15, "unit": "µM"}, {"measurement": "TGI", "setting": "HCT-15 colon", "value": 4.64, "unit": "µM"}, {"measurement": "GI50", "setting": "HL-60(TB) leukemia", "value": 1.57, "unit": "µM"}, {"measurement": "TGI", "setting": "HL-60(TB) leukemia", "value": 3.71, "unit": "µM"}, {"measurement": "GI50", "setting": "HOP-62 NSCLC", "value": 2.32, "unit": "µM"}, {"measurement": "TGI", "setting": "HOP-62 NSCLC", "value": 5.48, "unit": "µM"}, {"measurement": "GI50", "setting": "HOP-92 NSCLC", "value": 1.62, "unit": "µM"}, {"measurement": "TGI", "setting": "HOP-92 NSCLC", "value": 3.06, "unit": "µM"}, {"measurement": "GI50", "setting": "HT29 colon", "value": 2.72, "unit": "µM"}, {"measurement": "TGI", "setting": "HT29 colon", "value": 8.61, "unit": "µM"}, {"measurement": "GI50", "setting": "IGROV1 ovarian", "value": 2.31, "unit": "µM"}, {"measurement": "TGI", "setting": "IGROV1 ovarian", "value": 5.07, "unit": "µM"}, {"measurement": "GI50", "setting": "K-562 leukemia", "value": 1.97, "unit": "µM"}, {"measurement": "TGI", "setting": "K-562 leukemia", "value": 5.25, "unit": "µM"}, {"measurement": "GI50", "setting": "KM12 colon", "value": 1.47, "unit": "µM"}, {"measurement": "TGI", "setting": "KM12 colon", "value": 2.89, "unit": "µM"}, {"measurement": "GI50", "setting": "M14 melanoma", "value": 2.3, "unit": "µM"}, {"measurement": "TGI", "setting": "M14 melanoma", "value": 5.05, "unit": "µM"}, {"measurement": "GI50", "setting": "MALME-3M melanoma", "value": 2, "unit": "µM"}, {"measurement": "TGI", "setting": "MALME-3M melanoma", "value": 3.66, "unit": "µM"}, {"measurement": "GI50", "setting": "MCF7 breast", "value": 2.55, "unit": "µM"}, {"measurement": "TGI", "setting": "MCF7 breast", "value": 6.08, "unit": "µM"}, {"measurement": "GI50", "setting": "MDA-MB-231 breast", "value": 1.93, "unit": "µM"}, {"measurement": "TGI", "setting": "MDA-MB-231 breast", "value": 3.56, "unit": "µM"}, {"measurement": "GI50", "setting": "MDA-MB-435", "value": 1.99, "unit": "µM"}, {"measurement": "TGI", "setting": "MDA-MB-435", "value": 3.75, "unit": "µM"}, {"measurement": "GI50", "setting": "MOLT-4 leukemia", "value": 1.94, "unit": "µM"}, {"measurement": "TGI", "setting": "MOLT-4 leukemia", "value": 4.87, "unit": "µM"}, {"measurement": "GI50", "setting": "NCI-H226 lung", "value": 2.19, "unit": "µM"}, {"measurement": "TGI", "setting": "NCI-H226 lung", "value": 4.68, "unit": "µM"}]}]}
